Data on 21 compounds can be found in US20260285855A1, “HETEROARYL DERIVATIVES AS DDRS INHIBITORS” (CHIESI FARMACEUTICI S.P.A., priority 2023, published 2026).

Structures are written as SMILES. pKi: −log10 of the molar value. Some results are limits rather than exact numbers.

One experiment has as its target T1, DDR1 (Homo sapiens, UniProt Q08345).
T1 construct: purchased Carna Biosciences
Briefly: LanthaScreen Europium Kinase Binding assay, DDR1. As to conditions: 5 nM DDR1, 20 nM Kinase Tracer 178, 1 h at rt; Ki from IC50 by Cheng-Prusoff; read-out: Ki DDR1. The procedure:
(§1) DDR1 and DDR2 binding assays were performed using Life Technologies LanthaScreen™ Europium Kinase Binding assay. […] IC50 values were determined in GraphPad Prism 7.0 software, using 4 parameter model: log (inhibitor) vs. response. IC50 values were converted in Ki using the Cheng-Prusoff equation (Ki-IC50/(1+ [Tracer]/Kd).

Another experiment deals with T2, DDR2 (Homo sapiens, UniProt Q16832).
T2 construct: purchased Life Technologies
T2 sequence (Q16832 22-855): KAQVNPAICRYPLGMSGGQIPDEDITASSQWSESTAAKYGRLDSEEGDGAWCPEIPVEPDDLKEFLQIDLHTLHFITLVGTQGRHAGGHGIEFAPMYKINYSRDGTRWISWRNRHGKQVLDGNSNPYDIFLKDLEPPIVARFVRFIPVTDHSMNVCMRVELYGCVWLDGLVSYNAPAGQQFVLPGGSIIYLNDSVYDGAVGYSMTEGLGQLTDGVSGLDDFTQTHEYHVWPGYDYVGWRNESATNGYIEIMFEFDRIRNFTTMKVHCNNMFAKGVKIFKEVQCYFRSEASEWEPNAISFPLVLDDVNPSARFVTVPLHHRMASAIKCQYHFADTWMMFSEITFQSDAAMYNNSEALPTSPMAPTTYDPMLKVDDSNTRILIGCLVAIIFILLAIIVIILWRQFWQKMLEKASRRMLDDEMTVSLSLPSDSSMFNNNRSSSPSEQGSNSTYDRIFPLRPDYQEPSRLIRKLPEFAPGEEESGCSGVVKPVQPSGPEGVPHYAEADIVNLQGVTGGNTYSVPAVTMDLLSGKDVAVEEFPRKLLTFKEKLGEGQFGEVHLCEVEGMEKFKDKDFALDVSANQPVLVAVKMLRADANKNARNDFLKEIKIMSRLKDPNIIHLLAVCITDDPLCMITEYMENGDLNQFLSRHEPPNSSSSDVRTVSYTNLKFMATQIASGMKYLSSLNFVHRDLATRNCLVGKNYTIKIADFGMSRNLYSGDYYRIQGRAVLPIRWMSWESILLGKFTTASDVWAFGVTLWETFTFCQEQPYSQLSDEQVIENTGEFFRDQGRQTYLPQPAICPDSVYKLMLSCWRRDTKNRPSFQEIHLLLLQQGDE
Briefly: LanthaScreen Europium Kinase Binding assay, DDR2. Particulars: 5 nM DDR2, 10 nM Kinase Tracer 178, 1 h at rt; Ki from IC50 by Cheng-Prusoff; read-out: Ki DDR2. The procedure: as §1

T1 sequence (Q08345 19-913): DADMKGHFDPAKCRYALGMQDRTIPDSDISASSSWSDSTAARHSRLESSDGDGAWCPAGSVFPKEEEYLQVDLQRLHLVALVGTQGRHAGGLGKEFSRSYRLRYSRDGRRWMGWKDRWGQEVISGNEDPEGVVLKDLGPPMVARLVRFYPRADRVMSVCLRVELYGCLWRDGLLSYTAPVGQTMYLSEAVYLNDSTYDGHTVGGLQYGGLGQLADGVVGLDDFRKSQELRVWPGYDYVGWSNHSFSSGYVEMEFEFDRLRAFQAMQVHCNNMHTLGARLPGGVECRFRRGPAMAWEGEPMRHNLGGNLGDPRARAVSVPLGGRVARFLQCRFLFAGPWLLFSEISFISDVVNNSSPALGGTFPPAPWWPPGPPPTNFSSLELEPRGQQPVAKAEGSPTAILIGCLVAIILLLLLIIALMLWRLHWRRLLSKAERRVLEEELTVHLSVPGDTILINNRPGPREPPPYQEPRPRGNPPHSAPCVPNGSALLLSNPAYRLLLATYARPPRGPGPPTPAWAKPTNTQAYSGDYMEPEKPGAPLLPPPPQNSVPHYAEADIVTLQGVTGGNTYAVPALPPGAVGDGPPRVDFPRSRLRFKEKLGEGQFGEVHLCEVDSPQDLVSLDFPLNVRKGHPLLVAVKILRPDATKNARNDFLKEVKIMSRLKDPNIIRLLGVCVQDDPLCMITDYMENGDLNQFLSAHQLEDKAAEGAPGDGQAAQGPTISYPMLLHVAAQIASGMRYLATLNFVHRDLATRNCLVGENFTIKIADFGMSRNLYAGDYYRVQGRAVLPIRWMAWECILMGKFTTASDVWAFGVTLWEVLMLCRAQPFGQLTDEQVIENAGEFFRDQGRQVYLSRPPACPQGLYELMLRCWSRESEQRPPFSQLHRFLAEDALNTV

In the case of `O=C(Nc1cccc(C(F)(F)F)c1)NC1CC2(C1)CN(C(=O)c1cnc3ccccn13)C2` [Example 1, 1-(2-(imidazo[1,2-a]pyridine-3-carbonyl)-2-azaspiro[3.3]heptan-6-yl)-3-(3-(trifluoromethyl)phenyl)urea], the figures for the pKi on DDR1 and on DDR2 were > 8.30 and 7.60 to 8.30, respectively.

Consider `O=C(Nc1cccc(C(F)(F)F)c1)NC1CC2(C1)CN(C(=O)c1cnn3ccncc13)C2` [Example 2, 1-(2-(pyrazolo[1,5-a]pyrazine-3-carbonyl)-2-azaspiro[3.3]heptan-6-yl)-3-(3-(trifluoromethyl)phenyl)urea], for which the values for the negative logarithm of the Ki (pKi) on DDR1 and at DDR2 were > 8.30 and 7.60 to 8.30, respectively.

On to `O=C(Nc1cccc(C(F)(F)F)c1)NC1CC2(C1)CN(C(=O)c1cnc3[nH]ccc3c1)C2` [Example 3, 1-(2-(1H-pyrrolo[2,3-b]pyridine-5-carbonyl)-2-azaspiro[3.3]heptan-6-yl)-3-(3-(trifluoromethyl)phenyl)urea], for which the pKi on DDR1 and on DDR2 was 7.00 to 7.60 in each case.

For the compound `O=C(Nc1cccc(C(F)(F)F)c1)NC1CC2(C1)CN(C(=O)c1cnn3ccsc13)C2` [Example 4, 1-(2-(pyrazolo[5,1-b]thiazole-7-carbonyl)-2-azaspiro[3.3]heptan-6-yl)-3-(3-(trifluoromethyl)phenyl)urea], the negative-log Ki (pKi) at DDR1 and at DDR2 was > 8.30 each time.

On to `CN1CCN(c2ccc3ncc(C(=O)N4CC5(CC(NC(=O)Nc6cccc(C(F)(F)F)c6)C5)C4)n3c2)CC1` [Example 5, 1-(2-(6-(4-methylpiperazin-1-yl)imidazo[1,2-a]pyridine-3-carbonyl)-2-azaspiro[3.3]heptan-6-yl)-3-(3-(trifluoromethyl)phenyl)urea], for which the results for the negative logarithm of the Ki (pKi) at DDR1 and at DDR2 were > 8.30 and 7.60 to 8.30, respectively.

On to `O=C(Nc1cccc(C(F)(F)F)c1)NC1CC2(C1)CN(C(=O)c1cnc3n1CCOC3)C2` [Example 6, 1-(2-(5,6-dihydro-8H-imidazo[2,1-c][1,4]oxazine-3-carbonyl)-2-azaspiro[3.3]heptan-6-yl)-3-(3-(trifluoromethyl)phenyl)urea], for which the pKi on DDR1 is > 8.30; at DDR2, 7.60 to 8.30.

For `O=C(Nc1cccc(C(F)(F)F)c1)NC1CC2(C1)CN(C(=O)c1cnc3cccnn13)C2` [Example 7, 1-(2-(imidazo[1,2-b]pyridazine-3-carbonyl)-2-azaspiro[3.3]heptan-6-yl)-3-(3-(trifluoromethyl)phenyl)urea], the pKi at DDR1 and on DDR2 was 7.60 to 8.30 each time.

On to `Cn1cncc1C(=O)N1CC2(CC(NC(=O)Nc3cccc(C(F)(F)F)c3)C2)C1` [Example 8, 1-(2-(1-methyl-1H-imidazole-5-carbonyl)-2-azaspiro[3.3]heptan-6-yl)-3-(3-(trifluoromethyl)phenyl)urea], for which the pKi on DDR1 is > 8.30; at DDR2, 7.60 to 8.30.

Regarding `Cn1ccn2ncc(C(=O)N3CC4(CC(NC(=O)Nc5cccc(C(F)(F)F)c5)C4)C3)c12` [Example 9, 1-(2-(1-methyl-1H-imidazo[1,2-b]pyrazole-7-carbonyl)-2-azaspiro[3.3]heptan-6-yl)-3-(3-(trifluoromethyl)phenyl)urea], the pKi at DDR1 and at DDR2 was > 8.30 in each case.

With `O=C(Nc1cccc(C(F)(F)F)c1)NC1CC2(C1)CN(Cc1cnc3cnccn13)C2` [Example 11, 1-(2-(imidazo[1,2-a]pyrazin-3-ylmethyl)-2-azaspiro[3.3]heptan-6-yl)-3-(3-(trifluoromethyl)phenyl)urea], the pKi at DDR1 and at DDR2 was 7.60 to 8.30 throughout.

Turning to `O=C(Nc1cccc(C(F)(F)F)c1)NC1CC2(C1)CN(Cc1cnc3[nH]ncc3c1)C2` [Example 12, 1-(2-((1H-pyrazolo[3,4-b]pyridine-5-yl)methyl)-2-azaspiro[3.3]heptan-6-yl)-3-(3-(trifluoromethyl)phenyl)urea], the pKi on DDR1 and on DDR2 was 7.60 to 8.30 in each case.

As to `O=C(Nc1cccc(C(F)(F)F)c1)NC1CC2(C1)CN(c1ccnc3[nH]ncc13)C2` [Example 15, 1-(2-(1H-pyrazolo[3,4-b]pyridin-4-yl)-2-azaspiro[3.3]heptan-6-yl)-3-(3-(trifluoromethyl)phenyl)urea], the pKi at DDR1 and at DDR2 was > 8.30 throughout.

In the case of `O=C(Nc1cc(F)cc(C(F)(F)F)c1)NC1CC2(C1)CN(C(=O)c1cnn3ccncc13)C2` [Example 16, 1-(3-fluoro-5-(trifluoromethyl)phenyl)-3-(2-(pyrazolo[1,5-a]pyrazine-3-carbonyl)-2-azaspiro[3.3]heptan-6-yl)urea], the negative-log Ki (pKi) on DDR1 is > 8.30; at DDR2, 7.60 to 8.30.

As to `O=C(Nc1cc(C(F)(F)F)ccc1F)NC1CC2(C1)CN(C(=O)c1cnn3ccncc13)C2` [Example 17, 1-(2-fluoro-5-(trifluoromethyl)phenyl)-3-(2-(pyrazolo[1,5-a]pyrazine-3-carbonyl)-2-azaspiro[3.3]heptan-6-yl)urea], the pKi was > 8.30 at DDR1 and 7.60 to 8.30 on DDR2.

Regarding `CC(C)(C)c1cc(NC(=O)NC2CC3(C2)CN(C(=O)c2cnn4ccncc24)C3)no1` [Example 18, 1-(5-(tert-butyl)isoxazol-3-yl)-3-(2-(pyrazolo[1,5-a]pyrazine-3-carbonyl)-2-azaspiro[3.3]heptan-6-yl)urea], the pKi at DDR1 is 7.60 to 8.30; on DDR2 it was 7.00 to 7.60.

Turning to `N#Cc1cc(NC(=O)NC2CC3(C2)CN(C(=O)c2cnn4ccncc24)C3)cc(C(F)(F)F)c1` [Example 19, 1-(3-cyano-5-(trifluoromethyl)phenyl)-3-(2-(pyrazolo[1,5-a]pyrazine-3-carbonyl)-2-azaspiro[3.3]heptan-6-yl)urea], the pKi at DDR1 and on DDR2 was > 8.30 each time.

On to `CC(C)(C)c1cc(NC(=O)NC2CC3(C2)CN(C(=O)c2cnn4ccsc24)C3)no1` [Example 20, 1-(5-(tert-butyl)isoxazol-3-yl)-3-(2-(pyrazolo[5,1-b]thiazole-7-carbonyl)-2-azaspiro[3.3]heptan-6-yl)urea], for which the results for the negative-log Ki (pKi) on DDR1 and on DDR2 were > 8.30 and 7.60 to 8.30, respectively.

On to `O=C(Nc1cccc(OC(F)(F)F)c1)NC1CC2(C1)CN(C(=O)c1cnn3ccsc13)C2` [Example 21, 1-(2-(pyrazolo[5,1-b]thiazole-7-carbonyl)-2-azaspiro[3.3]heptan-6-yl)-3-(3-(trifluoromethoxy)phenyl)urea], for which the negative logarithm of the Ki (pKi) on DDR1 and on DDR2 was > 8.30 in each case.

Take `O=C(Nc1cncc(C(F)(F)F)c1)NC1CC2(C1)CN(C(=O)c1cnn3ccsc13)C2` [Example 22, 1-(2-(pyrazolo[5,1-b]thiazole-7-carbonyl)-2-azaspiro[3.3]heptan-6-yl)-3-(5-(trifluoromethyl)pyridin-3-yl)urea]: the negative-log Ki (pKi) on DDR1 is > 8.30; on DDR2, 7.60 to 8.30.

Consider `COc1ccc(OC(F)(F)F)cc1NC(=O)NC1CC2(C1)CN(C(=O)c1cnn3ccsc13)C2` [Example 23, 1-(2-methoxy-5-(trifluoromethoxy)phenyl)-3-(2-(pyrazolo[5,1-b]thiazole-7-carbonyl)-2-azaspiro[3.3]heptan-6-yl)urea], for which the pKi at DDR1 and at DDR2 was > 8.30 each time.

As to `CN(C)Cc1ccc(NC(=O)NC2CC3(C2)CN(C(=O)c2cnn4ccsc24)C3)cc1C(F)(F)F` [Example 24, 1-(4-((dimethylamino)methyl)-3-(trifluoromethyl)phenyl)-3-(2-(pyrazolo[5,1-b]thiazole-7-carbonyl)-2-azaspiro[3.3]heptan-6-yl)urea], the figures for the negative logarithm of the Ki (pKi) at DDR1 and on DDR2 were > 8.30 and 7.60 to 8.30, respectively.
